Experimental findings from patent publication US9266883B2, “Ring-fused bicyclic pyridyl derivatives as FGFR4 inhibitors” (Novartis AG, priority 2013, dated 2016) are described below.

For one assay, the target named is FGFR1 (407-822) (Homo sapiens (Human), UniProt P11362). Kind of assay: In vitro biochemical assay for FGFR1.
A further assay addresses FGFR2 (406-821) (Homo sapiens (Human), UniProt P21802). The assay is described as follows: In vitro biochemical assay for FGFR2.
For the next assay, the target named is FGFR3 (411-806) (Homo sapiens (Human), UniProt P22607). Kind of assay: In vitro biochemical assay for FGFR3.
FGFR3 (411-806), sequence (P22607 411-806): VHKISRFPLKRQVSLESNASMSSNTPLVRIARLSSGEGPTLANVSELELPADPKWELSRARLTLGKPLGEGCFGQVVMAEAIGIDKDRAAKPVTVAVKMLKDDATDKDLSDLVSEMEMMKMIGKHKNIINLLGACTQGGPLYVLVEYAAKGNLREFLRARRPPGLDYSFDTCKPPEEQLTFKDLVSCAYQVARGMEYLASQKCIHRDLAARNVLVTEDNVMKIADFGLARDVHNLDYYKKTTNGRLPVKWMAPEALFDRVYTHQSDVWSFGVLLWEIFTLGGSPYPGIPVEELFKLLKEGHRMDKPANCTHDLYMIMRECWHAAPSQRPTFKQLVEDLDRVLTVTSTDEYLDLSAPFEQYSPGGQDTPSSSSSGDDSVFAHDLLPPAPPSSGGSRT
For assay [1], the system named is HuH-7 hepatocellular carcinoma cells. Kind of assay: CellTiter Glo (CTG) Assay. Conditions: Homo sapiens, Huh-7, 72 h, read-out: HUH7 proliferation (nM) CTG.
Assay [2] addresses FGFR4 (GST-FGFR4(388-802)) (Homo sapiens (Human), UniProt P22455). The assay is described as follows: In-vitro biochemical kinase assay for FGFR4 (Caliper microfluidic mobility shift). The conditions noted are these: read-out: Biochemical FGFR4 IC50.
A further assay addresses Tel-FGFR4 (Homo sapiens (Human), UniProt P22455). The assay is described as follows: In vitro cellular kinase assay for FGFR4 (BaF3-Tel-FGFR4 cells, MSD capture ELISA of tyrosine phosphorylation). The assay is classed as cell-based. Conditions: BaF3-Tel-FGFR4 cells, 1 hour incubation; read-out: Cellular BaF3 FGFR4 IC50.

Structures are written as SMILES. Some results are limits rather than exact numbers.

FGFR2 (406-821), sequence (P21802 406-821): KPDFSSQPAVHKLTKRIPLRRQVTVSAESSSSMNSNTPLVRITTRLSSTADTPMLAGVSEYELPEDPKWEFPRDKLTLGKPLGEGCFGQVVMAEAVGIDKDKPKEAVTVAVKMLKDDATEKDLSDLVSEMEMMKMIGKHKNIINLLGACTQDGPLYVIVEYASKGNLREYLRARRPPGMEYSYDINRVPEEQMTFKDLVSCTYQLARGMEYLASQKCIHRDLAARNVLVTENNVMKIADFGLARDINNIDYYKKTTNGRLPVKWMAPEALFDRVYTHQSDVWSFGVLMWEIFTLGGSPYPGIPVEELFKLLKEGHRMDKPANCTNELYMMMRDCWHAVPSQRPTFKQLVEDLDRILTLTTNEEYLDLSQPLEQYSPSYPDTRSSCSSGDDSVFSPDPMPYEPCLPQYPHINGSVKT
Tel-FGFR4, sequence (P22455 other isoform, or with tags, fused parts or gaps): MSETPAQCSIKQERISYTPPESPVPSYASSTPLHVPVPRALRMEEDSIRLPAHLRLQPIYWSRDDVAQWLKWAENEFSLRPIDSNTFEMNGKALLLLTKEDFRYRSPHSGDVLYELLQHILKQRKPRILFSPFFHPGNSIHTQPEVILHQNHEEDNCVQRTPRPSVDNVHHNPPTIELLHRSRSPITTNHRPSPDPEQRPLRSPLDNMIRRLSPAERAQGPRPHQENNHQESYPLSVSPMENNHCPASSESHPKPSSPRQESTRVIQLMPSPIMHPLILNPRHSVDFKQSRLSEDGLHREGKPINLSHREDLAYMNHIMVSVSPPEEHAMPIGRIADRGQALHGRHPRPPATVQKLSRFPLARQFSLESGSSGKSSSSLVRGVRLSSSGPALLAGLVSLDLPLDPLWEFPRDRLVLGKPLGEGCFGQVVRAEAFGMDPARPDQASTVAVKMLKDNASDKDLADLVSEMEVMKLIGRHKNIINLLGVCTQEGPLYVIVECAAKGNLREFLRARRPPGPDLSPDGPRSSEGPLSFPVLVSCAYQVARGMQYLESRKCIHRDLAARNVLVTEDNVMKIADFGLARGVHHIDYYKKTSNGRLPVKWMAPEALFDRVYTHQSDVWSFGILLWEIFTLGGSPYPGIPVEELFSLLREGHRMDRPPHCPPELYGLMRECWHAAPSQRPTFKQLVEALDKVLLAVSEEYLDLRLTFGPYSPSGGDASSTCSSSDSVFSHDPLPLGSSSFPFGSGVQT
FGFR4 (GST-FGFR4(388-802)), sequence (P22455 388-802): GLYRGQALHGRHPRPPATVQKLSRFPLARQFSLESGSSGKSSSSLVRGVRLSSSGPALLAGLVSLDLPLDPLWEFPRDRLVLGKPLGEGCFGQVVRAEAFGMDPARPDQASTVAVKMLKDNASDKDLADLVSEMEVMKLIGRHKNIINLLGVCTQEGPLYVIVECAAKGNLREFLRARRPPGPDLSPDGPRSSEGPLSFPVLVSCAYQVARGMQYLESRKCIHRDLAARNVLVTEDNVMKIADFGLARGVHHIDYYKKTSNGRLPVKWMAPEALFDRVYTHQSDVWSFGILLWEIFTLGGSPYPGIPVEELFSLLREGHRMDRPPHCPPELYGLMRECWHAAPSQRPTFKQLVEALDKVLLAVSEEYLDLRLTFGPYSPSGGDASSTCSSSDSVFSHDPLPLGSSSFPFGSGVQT
FGFR1 (407-822), sequence (P11362 407-822): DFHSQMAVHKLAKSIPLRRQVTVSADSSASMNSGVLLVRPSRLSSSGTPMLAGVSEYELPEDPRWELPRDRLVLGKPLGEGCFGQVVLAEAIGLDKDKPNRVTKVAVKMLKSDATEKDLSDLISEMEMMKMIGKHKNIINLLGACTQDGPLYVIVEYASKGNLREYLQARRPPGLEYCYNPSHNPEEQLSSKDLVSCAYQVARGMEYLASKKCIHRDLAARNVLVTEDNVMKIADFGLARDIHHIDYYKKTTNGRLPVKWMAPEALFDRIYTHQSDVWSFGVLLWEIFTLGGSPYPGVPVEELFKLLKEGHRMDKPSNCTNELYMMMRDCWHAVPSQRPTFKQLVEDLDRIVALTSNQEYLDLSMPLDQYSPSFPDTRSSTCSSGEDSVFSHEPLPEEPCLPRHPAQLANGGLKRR

As for `N#Cc1cnc(NC(=O)N2CCCc3cc(CO)c(C=O)nc32)cc1NCC1CCCOC1` (racemic) [Example 55, N-(5-cyano-4-(((tetrahydro-2H-pyran-3-yl)methyl)amino)pyridin-2-yl)-7-formyl-6-(hydroxymethyl)-3,4-dihydro-1,8-naphthyridine-1(2H)-carboxamide], the IC50 is > 10 µM against FGFR1 (407-822), > 10 µM against FGFR2 (406-821), > 10 µM at FGFR3 (411-806) and 202 nM in assay [1].
For `CC(=O)N1CCN(Cc2cc3c(nc2C=O)N(C(=O)Nc2cc(OC(C)C)c(C#N)cn2)CCC3)CC1` [Example 134, 6-((4-acetylpiperazin-1-yl)methyl)-N-(5-cyano-4-isopropoxypyridin-2-yl)-7-formyl-3,4-dihydro-1,8-naphthyridine-1(2H)-carboxamide], the IC50 in assay [2] was 0.0019 µM; at Tel-FGFR4, 0.0205 µM; at FGFR1 (407-822), > 10 µM; at FGFR2 (406-821), > 10 µM; at FGFR3 (411-806), > 10 µM; in assay [1] it was 450 nM.
For `COCCOc1cc(NC(=O)N2CCCc3cc(C4CC4)c(C=O)nc32)ncc1C#N` [Example 62, N-(5-cyano-4-(2-methoxyethoxyl)pyridin-2-yl)-6-cyclopropyl-7-formyl-3,4-dihydro-1,8-naphthyridine-1(2H)-carboxamide], the IC50 against FGFR1 (407-822) is > 10 µM; against FGFR2 (406-821), > 10 µM; on FGFR3 (411-806) it was > 10 µM; in assay [1] it was 599 nM.
Take `N#Cc1cnc(NC(=O)N2CCCc3cc(CO)c(C=O)nc32)cc1O[C@H]1CCOC1` [Example 50, (S)-N-(5-cyano-4-((tetrahydrofuran-3-yl)oxy)pyridin-2-yl)-7-formyl-6-(hydroxymethyl)-3,4-dihydro-1,8-naphthyridine-1(2H)-carboxamide]: the IC50 at FGFR1 (407-822), on FGFR2 (406-821) and against FGFR3 (411-806) was > 10 µM throughout.
Regarding `COCC(C)Oc1cc(NC(=O)N2CCCc3cc(CO)c(C=O)nc32)ncc1C#N` (racemic) [Example 48, N-(5-cyano-4-((1-methoxypropan-2-yl)oxy)pyridin-2-yl)-7-formyl-6-(hydroxymethyl)-3,4-dihydro-1,8-naphthyridine-1(2H)-carboxamide], the IC50 in assay [2] was 0.0032 µM; on Tel-FGFR4, 0.0088 µM; at FGFR1 (407-822), > 10 µM; against FGFR2 (406-821) it was > 10 µM; on FGFR3 (411-806), > 10 µM.
For the compound `COCCOc1cc(NC(=O)N2CCCc3cc(CN(C)C)c(C=O)nc32)ncc1C#N` [Example 64, N-(5-cyano-4-(2-methoxyethoxyl)pyridin-2-yl)-6-((dimethylamino)methyl)-7-formyl-3,4-dihydro-1,8-naphthyridine-1(2H)-carboxamide], the IC50 in assay [2] is 0.16 µM; at Tel-FGFR4 it was 0.713 µM; at FGFR1 (407-822) it was > 10 µM; against FGFR2 (406-821), > 10 µM; on FGFR3 (411-806), > 10 µM.
As to `COCCNc1cc(NC(=O)N2CCCc3cc(-c4cnc(C)s4)c(C=O)nc32)ncc1C#N` [Example 252, N-(5-cyano-4-((2-methoxyethyl)amino)pyridin-2-yl)-7-formyl-6-(2-methylthiazol-5-yl)-3,4-dihydro-1,8-naphthyridine-1(2H)-carboxamide], the IC50 against FGFR1 (407-822) was > 10 µM; against FGFR2 (406-821), > 10 µM; against FGFR3 (411-806), > 10 µM; in assay [1], 395 nM.
As for `COCCOc1cc(NC(=O)N2CCCc3cc(CO)c(C=O)nc32)ncc1C#N` [Example 39, N-(5-cyano-4-(2-methoxyethoxyl)pyridin-2-yl)-7-formyl-6-(hydroxymethyl)-3,4-dihydro-1,8-naphthyridine-1(2H)-carboxamide], the IC50 on FGFR1 (407-822), at FGFR2 (406-821) and on FGFR3 (411-806) was > 10 µM each time.
In the case of `CC(C)Nc1cc(NC(=O)N2CCCc3cc(CN4CCN(C)CC4=O)c(C=O)nc32)ncc1C#N` [Example 95, N-(5-cyano-4-(isopropylamino)pyridin-2-yl)-7-formyl-6-((4-methyl-2-oxopiperazin-1-yl)methyl)-3,4-dihydro-1,8-naphthyridine-1(2H)-carboxamide], the IC50 against FGFR1 (407-822) was > 10 µM; against FGFR2 (406-821) it was > 10 µM; on FGFR3 (411-806) it was > 10 µM; in assay [1], 45 nM.
In the case of `COCCOc1cc(NC(=O)N2CCCc3ccc(C=O)nc32)ncc1C#N` [Example 23, N-(5-cyano-4-(2-methoxyethoxyl)pyridin-2-yl)-7-formyl-3,4-dihydro-1,8-naphthyridine-1(2H)-carboxamide], the IC50 against FGFR1 (407-822), against FGFR2 (406-821) and against FGFR3 (411-806) was > 10 µM throughout.
For the compound `N#Cc1cnc(NC(=O)N2CCCc3ccc(C=O)nc32)cn1` [Example 12, N-(5-cyanopyrazin-2-yl)-7-formyl-3,4-dihydro-1,8-naphthyridine-1(2H)-carboxamide], the IC50 against FGFR1 (407-822), against FGFR2 (406-821) and at FGFR3 (411-806) was > 10 µM each time.
On to `N#Cc1ccc(NC(=O)N2CCCc3ccc(C=O)nc32)nc1` [Example 3, N-(5-cyanopyridin-2-yl)-7-formyl-3,4-dihydro-1,8-naphthyridine-1(2H)-carboxamide], for which the IC50 on FGFR1 (407-822), against FGFR2 (406-821) and at FGFR3 (411-806) was > 10 µM in each case.
Turning to `COCCNc1cc(NC(=O)N2CCCc3cc(CO)c(C=O)nc32)ncc1C#N` [Example 80, N-(5-cyano-4-((2-methoxyethyl)amino)pyridin-2-yl)-7-formyl-6-(hydroxymethyl)-3,4-dihydro-1,8-naphthyridine-1(2H)-carboxamide], the IC50 on FGFR1 (407-822), against FGFR2 (406-821) and against FGFR3 (411-806) was > 10 µM each time.
With `COc1cc(NC(=O)N2CCCc3ccc(C=O)nc32)ncc1C#N` [Example 13, N-(5-cyano-4-methoxypyridin-2-yl)-7-formyl-3,4-dihydro-1,8-naphthyridine-1(2H)-carboxamide], the IC50 against FGFR1 (407-822), against FGFR2 (406-821) and against FGFR3 (411-806) was > 10 µM in each case.
Regarding `COCCNc1cc(NC(=O)N2CCCc3cc(CN(C)C(=O)COC)c(C=O)nc32)ncc1C#N` [Example 148, N-(5-cyano-4-((2-methoxyethyl)amino)pyridin-2-yl)-7-formyl-6-((2-methoxy-N-methylacetamido)methyl)-3,4-dihydro-1,8-naphthyridine-1(2H)-carboxamide], the IC50 at FGFR1 (407-822) was > 10 µM; on FGFR2 (406-821), > 10 µM; on FGFR3 (411-806), > 10 µM; in assay [1] it was 45.5 nM.
For the compound `COCCOc1cc(NC(=O)N2CCCCc3ccc(C=O)nc32)ncc1C#N` [Example 202, N-(5-cyano-4-(2-methoxyethoxyl)pyridin-2-yl)-2-formyl-7,8-dihydro-5H-pyrido[2,3-b]azepine-9(6H)-carboxamide], the IC50 against FGFR1 (407-822) was > 10 µM; against FGFR2 (406-821), > 10 µM; against FGFR3 (411-806) it was > 10 µM; in assay [1], > 3000 nM.
Take `COCCNc1cc(NC(=O)N2CCCc3cc(N4CCC(C)C4=O)c(C=O)nc32)ncc1C#N` (racemic) [Example 261, N-(5-cyano-4-((2-methoxyethyl)amino)pyridin-2-yl)-7-formyl-6-(3-methyl-2-oxopyrrolidin-1-yl)-3,4-dihydro-1,8-naphthyridine-1(2H)-carboxamide]: the IC50 on FGFR1 (407-822) is > 10 µM; on FGFR2 (406-821) it was > 10 µM; against FGFR3 (411-806) it was > 10 µM; in assay [1], 2540 nM.
On to `N#Cc1cnc(NC(=O)N2CCCc3cc(CO)c(C=O)nc32)cc1NC1CCOC1` (racemic) [Example 56, N-(5-cyano-4-((tetrahydrofuran-3-yl)amino)pyridin-2-yl)-7-formyl-6-(hydroxymethyl)-3,4-dihydro-1,8-naphthyridine-1(2H)-carboxamide], for which the IC50 at FGFR1 (407-822), against FGFR2 (406-821) and at FGFR3 (411-806) was > 10 µM each time.
Regarding `CN(C)CC(C)(O)CNc1cc(NC(=O)N2CCCc3cc(CO)c(C=O)nc32)ncc1C#N` (racemic) [Example 87, N-(5-cyano-4-((3-(dimethylamino)-2-hydroxy-2-methylpropyl)amino)pyridin-2-yl)-7-formyl-6-(hydroxymethyl)-3,4-dihydro-1,8-naphthyridine-1(2H)-carboxamide], the IC50 on FGFR1 (407-822), on FGFR2 (406-821) and on FGFR3 (411-806) was > 10 µM each time.
In the case of `N#Cc1ccc(NC(=O)N2CCC(O)c3ccc(C=O)nc32)nc1` (racemic) [Example 79, N-(5-cyanopyridin-2-yl)-7-formyl-4-hydroxy-3,4-dihydro-1,8-naphthyridine-1(2H)-carboxamide], the IC50 in assay [2] is 0.0325 µM; on Tel-FGFR4, 0.194 µM; against FGFR1 (407-822), > 10 µM; against FGFR2 (406-821), > 10 µM; at FGFR3 (411-806) it was > 10 µM.
In the case of `N#Cc1cnc(NC(=O)N2CCCc3cc(CO)c(C=O)nc32)cc1O[C@@H]1CCOC1` [Example 49, (R)-N-(5-cyano-4-((tetrahydrofuran-3-yl)oxy)pyridin-2-yl)-7-formyl-6-(hydroxymethyl)-3,4-dihydro-1,8-naphthyridine-1(2H)-carboxamide], the IC50 on FGFR1 (407-822), against FGFR2 (406-821) and on FGFR3 (411-806) was > 10 µM in each case.
As for `N#Cc1cnc(NC(=O)N2CCCc3ccc(C=O)nc32)nc1` [Example 8, N-(5-cyanopyrimidin-2-yl)-7-formyl-3,4-dihydro-1,8-naphthyridine-1(2H)-carboxamide], the IC50 at FGFR1 (407-822), at FGFR2 (406-821) and against FGFR3 (411-806) was > 10 µM throughout.
